In ChEMBL document CHEMBL5252627, “Antiangiogenic Pterocarpan and Flavonoid Constituents of Erythrina lysistemon” (J Nat Prod, 2023):

Columns and labels:
[1] = Antiproliferative activity against human HREC cells assessed as cell growth inhibition incubated for 44 hrs by AlamarBlue reagent based fluorescence assay; format: functional
[2] = Cytotoxicity against human ARPE-19 cells assessed as cell growth inhibition incubated for 44 hrs by AlamarBlue reagent based fluorescence assay; format: toxicity
HREC = test: Antiangiogenic activity against human HREC cells assessed as inhibition of invitro tubule formation by measuring tubule length at 0.05 to 50 uM and measured after 8 hrs by Matrigel based bright-field microscopy; format: functional, cell-based; details: dose 0.05-50 µM

| Compound | GI50 [1] [µM] | GI50 at 44 h [2] [µM] | Activity (HREC) |
| --- | --- | --- | --- |
| COc1ccc(CC2COc3cc(OC)c(OC)c(OC)c3C2=O)cc1OC(=O)[C@H](Cc1ccccc1)NC(=O)OC(C)(C)C (some centres not stated) | 0.018 | > 100 |  |
| CC(C)=CCc1c(O)ccc2c1OC[C@H]1c3ccc4c(c3O[C@@H]21)CC(O)C(C)(C)O4 (some centres not stated) | 4.67 | > 100 | Dose-Dependent Effect |
| CC1(C)C=Cc2c(ccc3c2O[C@H]2c4ccc5c(c4OC[C@@H]32)C=CC(C)(C)O5)O1 | > 100 | > 100 |  |
| CC(C)=CCc1cc2c(c(CC=C(C)C)c1O)OC[C@@H](c1ccc(O)cc1O)C2=O | 5.85 | > 100 | Dose-Dependent Effect |
| CC(C)=CCc1cc2c(c(CC=C(C)C)c1O)OC[C@@H](c1ccc(O)cc1O)C2 | 3.65 | > 100 | Dose-Dependent Effect |
| CC(C)=CCc1c(O)ccc2c1O[C@H]1c3ccc(O)c(CC=C(C)C)c3OC[C@@H]21 [ERYBRAEDIN A] | 4.21 | > 100 | Dose-Dependent Effect |
| CC(C)=CCc1cc2c(cc1O)OC[C@H]1c3ccc(O)c(CC=C(C)C)c3O[C@@H]21 [ERYBRAEDIN C] | 2.57 | > 100 | Dose-Dependent Effect |
| CC1(C)C=Cc2c(ccc3c2O[C@H]2c4ccc(O)cc4OC[C@@H]32)O1 [PHASEOLIN] | 4.65 | > 100 | Dose-Dependent Effect |
| CC(C)=CCc1c(O)ccc2c1O[C@H]1c3ccc(O)cc3OC[C@@H]21 [PHASEOLLIDIN] | > 100 | > 100 |  |
| COc1ccc2c(c1CC=C(C)C)O[C@H]1c3ccc(O)cc3OC[C@@H]21 [SANDWICENSIN] | 5.91 | > 100 | Dose-Dependent Effect |
